The values below come from patent US6500853B1, “Inhibitors of phospholipase enzymes” (Genetics Institute, LLC, priority 1998, dated 2002).

Values joined by “and” are separate entries in the source; they are usually repeats but may differ in a detail not shown here. Equal entries are not always repeated.

The inhibition is how much of the control response was suppressed.

One test addresses T1, cPLA2 (Homo sapiens, UniProt P47712).
T1 sequence (P47712 1-749): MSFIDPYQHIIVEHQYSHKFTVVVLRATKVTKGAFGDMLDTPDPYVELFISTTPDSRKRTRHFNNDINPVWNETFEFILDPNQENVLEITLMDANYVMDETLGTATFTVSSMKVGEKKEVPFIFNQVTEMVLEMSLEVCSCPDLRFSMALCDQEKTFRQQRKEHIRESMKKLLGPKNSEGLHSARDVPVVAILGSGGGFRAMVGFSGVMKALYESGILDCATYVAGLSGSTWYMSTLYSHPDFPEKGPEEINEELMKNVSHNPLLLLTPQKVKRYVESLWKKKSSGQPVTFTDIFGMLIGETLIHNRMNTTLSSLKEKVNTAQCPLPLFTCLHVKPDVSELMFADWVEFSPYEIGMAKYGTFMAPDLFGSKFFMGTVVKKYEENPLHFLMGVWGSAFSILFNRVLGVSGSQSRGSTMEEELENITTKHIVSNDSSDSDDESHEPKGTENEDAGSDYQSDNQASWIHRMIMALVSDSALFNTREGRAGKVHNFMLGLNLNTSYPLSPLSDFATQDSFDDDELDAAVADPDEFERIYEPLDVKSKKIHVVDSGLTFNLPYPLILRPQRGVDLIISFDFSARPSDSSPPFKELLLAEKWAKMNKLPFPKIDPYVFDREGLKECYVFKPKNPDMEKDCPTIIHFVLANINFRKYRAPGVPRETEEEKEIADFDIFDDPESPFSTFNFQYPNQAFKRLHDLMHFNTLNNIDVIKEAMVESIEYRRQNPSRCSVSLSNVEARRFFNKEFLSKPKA
In words: Coumarin Assay (cPLA2 inhibition). The format is biochemical. Conditions: for inhibition at 4.2 µM: CONCENTRATION 4.2 micromolar; for inhibition at 0.7 µM: CONCENTRATION 0.7 micromolar; for inhibition at 0.8 µM: CONCENTRATION 0.8 micromolar; for inhibition at 0.98 µM: CONCENTRATION 0.98 micromolar; for inhibition at 30 µM: CONCENTRATION 30 micromolar; for inhibition at 4.4 µM: CONCENTRATION 4.4 micromolar; for inhibition at 1.2 µM: CONCENTRATION 1.2 micromolar. In a few lines:
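Percent inhibition at the stated concentration, from the rate of 460 nm emission rise (360 nm excitation) per minute. Reaction started by adding 4 μg enzyme to compound and 60 μM 7-hydroxycoumarinyl 6-heptenoate in Hepes buffer pH 7.5 with 1 mM EDTA.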

Test [1] concerns Rat Carrageenan-Induced Footpad Edema. Briefly: Rat Carrageenan-Induced Footpad Edema Test. The format is in vivo, male Sprague Dawley rats. Conditions: footpad volume 3 hours after carrageenan; for inhibition in vivo at 5 mg/kg / inhibition in vivo at 2 mg/kg / inhibition in vivo at 10 mg/kg: Rattus norvegicus, 3 h, read-out: PERCENT INHIBITION; for inhibition in vivo at 5 mg/kg: iv; for inhibition in vivo at 2 mg/kg / inhibition in vivo at 10 mg/kg: po. A general note: In the carrageenan paw model, swelling and tenderness develop within hours.

The mark [2] stands for this setting: CONCENTRATION 100 micromolar, read-out: PERCENT INHIBITION @.

In the case of `O=C(O)CC1C(=O)NCCN1Cc1cn(C(c2ccccc2)c2ccccc2)c2ccc(NC(=O)C3CCCC3)cc12` (stereo not shown) [Example 67, 2-[1-({1-benzhydryl-5-[(cyclopentylcarbonyl)amino]-1H-indol-3-yl}methyl)-3-oxo-2-piperazinyl]acetic acid], the inhibition at 100 µM at cPLA2 (setting [2]) is 8%. In addition, the inhibition at 400 µM on cPLA2 (CONCENTRATION 400 micromolar, read-out: PERCENT INHIBITION @) came out at 31%. Further, the inhibition in vivo at 5 mg/kg in test [1] (IV, 5 mg/Kg) is 10.8%.
Consider `COc1cc(C(=O)O)ccc1Cc1cn(C(c2ccccc2)c2ccccc2)c2ccc(NS(=O)(=O)c3ccc(OC(F)(F)F)cc3)cc12` [Example 93, 4-{[1-benzhydryl-5-({[4-(trifluoromethoxy)phenyl]sulfonyl}amino)-1H-indol-3-yl]methyl}-3-methoxybenzoic acid], for which the inhibition at 4.2 µM at cPLA2 (read-out: PERCENT INHIBITION @) turned out to be 50%. In addition, the inhibition at 4.9 µM on cPLA2 (CONCENTRATION 4.9 micromolar, read-out: PERCENT INHIBITION @) worked out at 50%. Further, in test [1] (PO, 2 mg/Kg), the inhibition in vivo at 2 mg/kg was -3.02%. For the same compound, the inhibition in vivo at 10 mg/kg in test [1] (PO, 10 mg/Kg) was 9.91%.
In the case of `COc1cc(C(=O)O)ccc1Cc1cn(C(c2ccccc2)c2ccccc2)c2ccc(C#N)cc12` [Example 17, 4-[(1-benzhydryl-5-cyano-1H-indol-3-yl)methyl]-3-methoxybenzoic acid], at cPLA2 (read-out: PERCENT INHIBITION @), the inhibition at 0.7 µM came to 50%, the inhibition at 0.8 µM came out at 50% and the inhibition at 0.98 µM stood at 50%. The inhibition at 0.85 µM at cPLA2 (CONCENTRATION 0.85 micromolar, read-out: PERCENT INHIBITION @) stood at 50%. Further, the inhibition in vivo at 2 mg/kg in test [1] (PO, 2 mg/Kg) was determined as 19.3%. Moreover, in test [1] (PO, 10 mg/Kg), the inhibition in vivo at 10 mg/kg came out at 34.5%.
Take `COc1cc(C(=O)O)ccc1Cc1cn(C(c2ccccc2)c2ccccc2)c2ccc(NS(C)(=O)=O)cc12` [Example 10, 4-({1-benzhydryl-5-[(methylsulfonyl)amino]-1H-indol-3-yl}methyl)-3-methoxybenzoic acid]: on cPLA2 (CONCENTRATION 20 micromolar, read-out: PERCENT INHIBITION @), the inhibition at 20 µM came to 50%. In addition, the inhibition at 30 µM at cPLA2 (read-out: PERCENT INHIBITION @) stood at 50%. For the same compound, on cPLA2 (CONCENTRATION 33.5 micromolar, read-out: PERCENT INHIBITION @), the inhibition at 33.5 µM was determined as 50%. In addition, on cPLA2 (CONCENTRATION 40 micromolar, read-out: PERCENT INHIBITION @), the inhibition at 40 µM came out at 50%. In addition, on cPLA2 (CONCENTRATION 45 micromolar, read-out: PERCENT INHIBITION @), the inhibition at 45 µM is 50%. Moreover, in test [1] (IV, 5 mg/Kg), the inhibition in vivo at 5 mg/kg is 25.3%.
On to `COc1cc(C(=O)NS(=O)(=O)c2cccc3c(N(C)C)cccc23)ccc1Cc1cn(C(c2ccccc2)c2ccccc2)c2ccc(NC(=O)OC3CCCC3)cc12` [Example 30], for which the “PERCENT INHIBITION @” value stood at 50% at cPLA2 (CONCENTRATION 8 micromolar), 46% on cPLA2 (CONCENTRATION 20 micromolar), 50% at cPLA2 (CONCENTRATION 21 micromolar) and 50% on cPLA2 (CONCENTRATION 24 micromolar). Moreover, the “PERCENT INHIBITION” value is on record as 13.89% in test [1] (IV, 5 mg/Kg); −0.11% in test [1] (PO, 2 mg/Kg); 13.25% in test [1] (PO, 10 mg/Kg).
For the compound `COc1cc(C(=O)O)ccc1Cc1cn(C(c2ccccc2)c2ccccc2)c2ccc(NS(=O)(=O)c3ccc(C(F)(F)F)cc3)cc12` [Example 89, 4-{[1-benzhydryl-5-({[4-(trifluoromethyl)phenyl]sulfonyl}amino)-1H-indol-3-yl]methyl}-3-methoxybenzoic acid], on cPLA2 (read-out: PERCENT INHIBITION @), the inhibition at 4.4 µM was found to be 50%. Moreover, on cPLA2 (CONCENTRATION 4.8 micromolar, read-out: PERCENT INHIBITION @), the inhibition at 4.8 µM came out at 50%. Besides, the inhibition in vivo at 2 mg/kg in test [1] (PO, 2 mg/Kg) was found to be 14.3%. Moreover, the inhibition in vivo at 10 mg/kg in test [1] (PO, 10 mg/Kg) came to 16.4%.
Regarding `COc1cc(C(=O)O)ccc1Cc1cn(C(c2ccccc2)c2ccccc2)c2cc3c(cc12)OCO3` [Example 16, 4-[(5-benzhydryl-5H-[1,3]dioxolo[4,5-f]indol-7-yl)methyl]-3-methoxybenzoic acid], the “PERCENT INHIBITION @” value at cPLA2 (CONCENTRATION 0.125 micromolar) was 61% and 71%. In addition, at cPLA2 (CONCENTRATION 0.14 micromolar, read-out: PERCENT INHIBITION @), the inhibition at 0.14 µM was 50%. The inhibition at 0.17 µM at cPLA2 (CONCENTRATION 0.17 micromolar, read-out: PERCENT INHIBITION @) is 50%. Moreover, the inhibition at 0.25 µM on cPLA2 (CONCENTRATION 0.25 micromolar, read-out: PERCENT INHIBITION @) was determined as 69%. Further, the inhibition at 6.25 µM on cPLA2 (CONCENTRATION 6.25 micromolar, read-out: PERCENT INHIBITION @) was found to be 98%. Moreover, the inhibition in vivo at 2 mg/kg in test [1] (PO, 2 mg/Kg) was determined as 3.8%. For the same compound, in test [1] (PO, 10 mg/Kg), the inhibition in vivo at 10 mg/kg turned out to be 15%.
For the compound `COc1cc(C(=O)NS(=O)(=O)c2ccccc2Cl)ccc1Cc1cn(C(c2ccccc2)c2ccccc2)c2ccc(NC(=O)OC3CCCC3)cc12` [Example 28, cyclopentyl N-{1-benzhydryl-3-[4-({[(2-chlorophenyl)sulfonyl]amino}carbonyl)-2-methoxybenzyl]-1H-indol-5-yl}carbamate], on cPLA2 (read-out: PERCENT INHIBITION @), the inhibition at 4.2 µM turned out to be 50% and the inhibition at 4.4 µM was 50%. For the same compound, the inhibition in vivo at 5 mg/kg in test [1] (IV, 5 mg/Kg) was 0.29%.
Consider `O=C(O)Cc1cn(Cc2ccccc2)c2ccc(-c3cc4ccccc4o3)cc12` [Example 80, 2-[5-(1-benzofuran-2-yl)-1-benzyl-1H-indol-3-yl]acetic acid], for which, on cPLA2 (CONCENTRATION 48 micromolar, read-out: PERCENT INHIBITION @), the inhibition at 48 µM was 50%. Besides, the inhibition at 50 µM on cPLA2 (CONCENTRATION 50 micromolar, read-out: PERCENT INHIBITION @) worked out at 60%. Besides, the inhibition in vivo at 5 mg/kg in test [1] (IV, 5 mg/Kg) was 10.2%.
On to `COc1cc(C(=O)NS(=O)(=O)C(F)(F)F)ccc1Cc1cn(C(c2ccccc2)c2ccccc2)c2ccc(Br)cc12` [Example 39, N-{4-[(1-benzhydryl-5-bromo-1H-indol-3-yl)methyl]-3-methoxybenzoyl}(trifluoro)methanesulfonamide], for which the inhibition at 0.39 µM at cPLA2 (CONCENTRATION 0.39 micromolar, read-out: PERCENT INHIBITION @) was 50%. On cPLA2 (read-out: PERCENT INHIBITION @), the inhibition at 0.7 µM worked out at 50%, the inhibition at 0.8 µM was found to be 50% and the inhibition at 1.2 µM came out at 50%. In addition, on cPLA2 (CONCENTRATION 0.73 micromolar, read-out: PERCENT INHIBITION @), the inhibition at 0.73 µM amounted to 50%. Besides, the inhibition at 0.75 µM on cPLA2 (CONCENTRATION 0.75 micromolar, read-out: PERCENT INHIBITION @) stood at 50%. The inhibition at 0.9 µM at cPLA2 (CONCENTRATION 0.9 micromolar, read-out: PERCENT INHIBITION @) turned out to be 50%. The inhibition at 1 µM on cPLA2 (CONCENTRATION 1 micromolar, read-out: PERCENT INHIBITION @) is 50%. In addition, the inhibition at 1.3 µM on cPLA2 (CONCENTRATION 1.3 micromolar, read-out: PERCENT INHIBITION @) turned out to be 50%. The inhibition at 1.6 µM at cPLA2 (CONCENTRATION 1.6 micromolar, read-out: PERCENT INHIBITION @) is 50%. For the same compound, in test [1] (PO, 2 mg/Kg), the inhibition in vivo at 2 mg/kg stood at 1.98%. Further, in test [1] (PO, 10 mg/Kg), the inhibition in vivo at 10 mg/kg was -7.16%.
For `O=C(O)c1cscc1NC(=O)c1cn(C(c2ccccc2)c2ccccc2)c2ccc(NC(=O)C3CCCC3)cc12` [Example 99, 4-[({1-benzhydryl-5-[(cyclopentylcarbonyl)amino]-1H-indol-3-yl}carbonyl)amino]-3-thiophenecarboxylic acid], the inhibition at 30 µM on cPLA2 (read-out: PERCENT INHIBITION @) came out at 13%. In addition, the “PERCENT INHIBITION @” value at cPLA2 (CONCENTRATION 100 micromolar) is 50%. Also, at cPLA2 (setting [2]), the inhibition at 100 µM worked out at 38%. Further, the inhibition in vivo at 2 mg/kg in test [1] (PO, 2 mg/Kg) amounted to 24.5%. In addition, the inhibition in vivo at 10 mg/kg in test [1] (PO, 10 mg/Kg) stood at 22.8%.
`Cc1ccccc1S(=O)(=O)NC(=O)c1ccc(Cc2cn(C(c3ccccc3)c3ccccc3)c3ccc([N+](=O)[O-])cc23)cc1` [Example 56, N-{4-[(1-benzhydryl-5-nitro-1H-indol-3-yl)methyl]benzoyl}-2-methylbenzenesulfonamide]: on cPLA2 (read-out: PERCENT INHIBITION @), the inhibition at 0.98 µM stood at 50% and the inhibition at 1.2 µM was 50%. In test [1] (PO, 2 mg/Kg), the inhibition in vivo at 2 mg/kg is 4.22%. Also, the inhibition in vivo at 10 mg/kg in test [1] (PO, 10 mg/Kg) came to 9.34%.
